Consider 37 compounds from ChEMBL document CHEMBL4483862, “Open-source discovery of chemical leads for next-generation chemoprotective antimalarials” (2018).

In this test the test system is Plasmodium berghei. Description: Luciferase/luciferin-expressing antifolate-resistant parasites were used to infect a culture of HepG2 cells that were pre-incubated with compounds. Infected hepatocytes emit light due to the luciferase reaction. Assay results are presented as the percent inhibition of light emission compared to control. […]. It counts as functional. Conditions: sporozoite; for IC90: read-out: LUCIFERASE INFECTION ASSAY - IC90.

Where [1] appears, read: read-out: LUCIFERASE INFECTION ASSAY - IC50.

pIC50: −log10 of the molar value. A value given as a limit tells only on which side of the number the result lay.

A word on the pIC50: it is −log10 of the IC50, conventionally taken in molar units. Broadly, the IC90 is the point of the concentration-response curve where the effect stands at 90%. On to `Cn1c(N)c(C(=O)CSc2nc(-c3ccccc3)c(-c3ccccc3)o2)c(=O)n(C)c1=O`, for which the IC90 was > 10 µM. Further, under “HEPG2TOX_HILL_SLOPE 1.35, HEPG2TOX_R_SQUARED 0.367, PBLUC_HILL_SLOPE 15.8, PBLUC_R_SQUARED 0.143, read-out: LUCIFERASE INFECTION ASSAY - IC50”, the pIC50 was 5.05.
Regarding `Clc1nc2ccccc2cc1/C=N/Cc1ccc2c(c1)OCO2`, the IC90 is > 10 µM. Besides, under setting [1], the pIC50 is < 5.00.
As for `CCS(=O)(=O)N1CCC(C(=O)Nc2nc3ccc(Oc4ccccc4)cc3s2)CC1`, the concentration for an effect of 90% (IC90) was > 10 µM. For the same compound, the pIC50 (HEPG2TOX_HILL_SLOPE 0.324, HEPG2TOX_R_SQUARED 0.65, PBLUC_HILL_SLOPE 2.34, PBLUC_R_SQUARED 0.492, read-out: LUCIFERASE INFECTION ASSAY - IC50) was 5.25.
`c1ccc(Oc2ccccc2-c2cnc3c(NCc4cccs4)nccn23)cc1`: the IC90 was > 8.28 µM. Moreover, the pIC50 under setting [1] is 5.30.
Taken in the same sequence, the figures for `Cc1ccc(NCC(=O)c2ccc(-n3nncc3-c3ccccc3)cc2)cc1` were > 10 µM and < 5.00.
Turning to `COc1ccc(-c2cnc3cnc(-c4ccc(C(=O)NCCO)cc4)cn23)cc1`, the IC90 came to 4.08 µM. For the setting “PBLUC_HILL_SLOPE 8.42, PBLUC_R_SQUARED 0.632, read-out: LUCIFERASE INFECTION ASSAY - IC50”, the negative logarithm of the IC50 (pIC50) was 5.50.
As to `CC1CCN(Cc2nc(SC3CCCC3)c3c4c(sc3n2)CCC4)CC1`, the concentration for an effect of 90% (IC90) was > 10 µM. In addition, the pIC50 (PBLUC_HILL_SLOPE 9.85, PBLUC_R_SQUARED 0.167, read-out: LUCIFERASE INFECTION ASSAY - IC50) is 5.02.
Take `CN(C)c1ccccc1-c1cn2c(-c3ccc4ncccc4c3)cnc2cn1`: the IC90 was > 9.03 µM. For the same compound, the pIC50 (HEPG2TOX_HILL_SLOPE 7.2, HEPG2TOX_R_SQUARED 0.832, read-out: LUCIFERASE INFECTION ASSAY - IC50) is < 5.04.
`CC1C/C(=N\Nc2cc(Cl)cc(Cl)c2)c2cc(Cl)ccc2S1` (centres undefined): the IC90 was > 8.88 µM. The negative-log IC50 (pIC50) (HEPG2TOX_HILL_SLOPE 6.52, HEPG2TOX_R_SQUARED 0.251, PBLUC_HILL_SLOPE 17, PBLUC_R_SQUARED 0.35, read-out: LUCIFERASE INFECTION ASSAY - IC50) is 5.07.
In the case of `O=C(Nc1nonc1-c1cccs1)c1cccc(Cl)c1`, the concentration for an effect of 90% (IC90) is > 10.8 µM. The pIC50 (HEPG2TOX_HILL_SLOPE 10.4, HEPG2TOX_R_SQUARED 0.681, PBLUC_HILL_SLOPE 17.7, PBLUC_R_SQUARED 0.0482, read-out: LUCIFERASE INFECTION ASSAY - IC50) was 5.01.
`NC(=S)N/N=C/c1ncc(C(F)(F)F)cc1Cl`: the 90% effect concentration (IC90) came out at 4.07 µM. In addition, the pIC50 (HEPG2TOX_HILL_SLOPE 1.78, HEPG2TOX_R_SQUARED 0.942, PBLUC_HILL_SLOPE 40.1, PBLUC_R_SQUARED 0.426, read-out: LUCIFERASE INFECTION ASSAY - IC50) is 5.41.
As to `N#C/C(=C\c1ccc(OCc2ccccc2)c(OCc2ccccc2)c1)c1nnc2n1CCCCC2`, the IC90 was > 10 µM. Also, under setting [1], the negative-log IC50 (pIC50) is < 5.00.
In the case of `Cc1cccc(N/N=C2\C=NN=C2c2ccc(Br)cc2)c1`, the 90% effect concentration (IC90) is > 9.67 µM. The negative-log IC50 (pIC50) (FFLUC_HILL_SLOPE 12.3, FFLUC_R_SQUARED 0.435, HEPG2TOX_HILL_SLOPE 0.345, HEPG2TOX_R_SQUARED 0.819, PBLUC_HILL_SLOPE 10.9, PBLUC_R_SQUARED 0.46, read-out: LUCIFERASE INFECTION ASSAY - IC50) is 5.04.
For the compound `Cc1cc(C(=O)OCC(=O)NC(C)c2ccccc2)c(C)n1-c1ccccc1` (centres undefined), the IC90 is > 10 µM. Besides, under “HEPG2TOX_HILL_SLOPE 1.33, HEPG2TOX_R_SQUARED 0.976, PBLUC_HILL_SLOPE 3.52, PBLUC_R_SQUARED 0.43, read-out: LUCIFERASE INFECTION ASSAY - IC50”, the pIC50 is 5.13.
On to `COc1cccc(-c2nc3ccnc(NCCc4ccccc4)c3[nH]2)c1`, for which the IC90 worked out at 7.63 µM. The pIC50 (PBLUC_HILL_SLOPE 2.45, PBLUC_R_SQUARED 0.513, read-out: LUCIFERASE INFECTION ASSAY - IC50) is 5.51.
As for `CCOC(=O)/C(C)=N/Nc1ccc(OC(F)(F)F)cc1`, the IC90 is > 11.4 µM. Further, the pIC50 (FFLUC_HILL_SLOPE 15.6, FFLUC_R_SQUARED 0.429, HEPG2TOX_HILL_SLOPE 8.88, HEPG2TOX_R_SQUARED 0.352, PBLUC_HILL_SLOPE 1.63, PBLUC_R_SQUARED 0.496, read-out: LUCIFERASE INFECTION ASSAY - IC50) was 5.03.
Regarding `CCOc1ccc(Oc2ccc(S(=O)(=O)N(C)C3CCN(CC)CC3)cc2)cc1`, the concentration for an effect of 90% (IC90) was > 10 µM. The pIC50 under setting [1] is < 5.00.
On to `CSc1[nH]c(=O)c(C(=O)NCCc2c(C)cc(C(C)(C)C)cc2C)cc1C#N`, for which the concentration for an effect of 90% (IC90) came out at 7.29 µM. Besides, for the setting “PBLUC_HILL_SLOPE 3.23, PBLUC_R_SQUARED 0.351, read-out: LUCIFERASE INFECTION ASSAY - IC50”, the pIC50 was 5.43.
Regarding `Cc1cc(O)cc2c1C(=O)/C(=C/c1ccc(Cl)cc1)O2`, the IC90 was determined as 8.29 µM. The negative-log IC50 (pIC50) (HEPG2TOX_HILL_SLOPE 11.8, HEPG2TOX_R_SQUARED 0.8, PBLUC_HILL_SLOPE 6.24, PBLUC_R_SQUARED 0.404, read-out: LUCIFERASE INFECTION ASSAY - IC50) was 5.23.
With `N#CC1(c2ccccc2)C/C(=C\c2cccs2)C(=O)/C(=C/c2cccs2)C1` (centres undefined), the 90% effect concentration (IC90) was > 10 µM. Moreover, where the note is “FFLUC_HILL_SLOPE 0.232, FFLUC_R_SQUARED 0.325, read-out: LUCIFERASE INFECTION ASSAY - IC50”, the pIC50 was < 5.00.
Turning to `O=C(OCc1csc(-c2ccccc2)n1)c1cc([N+](=O)[O-])ccc1N1CCC(Cc2ccccc2)CC1`, the 90% effect concentration (IC90) is > 10 µM. The negative-log IC50 (pIC50) (HEPG2TOX_HILL_SLOPE 3.49, HEPG2TOX_R_SQUARED 0.926, PBLUC_HILL_SLOPE 12.2, PBLUC_R_SQUARED 0.465, read-out: LUCIFERASE INFECTION ASSAY - IC50) is 5.05.
For the compound `OCc1ccc(-c2cnc3cnc(-c4cccc(Cl)c4)cn23)cc1`, the IC90 is > 9.83 µM. For the same compound, the pIC50 (PBLUC_HILL_SLOPE 16, PBLUC_R_SQUARED 0.272, read-out: LUCIFERASE INFECTION ASSAY - IC50) was 5.02.
Turning to `Cc1cccc(OC2CCN(C(=O)NCc3cc[nH]n3)CC2)c1C`, the IC90 was > 10 µM. Further, under setting [1], the pIC50 is < 5.00.
On the same counts, the results for `Clc1ccc(-c2csc3ncnc(NCc4ccco4)c23)cc1` are > 10 µM and < 5.00.
As to `Cc1ccc(C23CC4CC(CC(C(=O)N5CCN(CCc6ccccc6)CC5)(C4)C2)C3)cc1`, the IC90 was > 10 µM. Besides, the negative logarithm of the IC50 (pIC50) under setting [1] is < 5.00.
With `COc1ccc(OC)c(CCNc2nc3cnc(-c4ccc(OC)nc4)cc3n2C)c1`, the 90% effect concentration (IC90) came out at 2.85 µM. Also, the negative-log IC50 (pIC50) (HEPG2TOX_HILL_SLOPE 1.95, HEPG2TOX_R_SQUARED 0.873, PBLUC_HILL_SLOPE 2.34, PBLUC_R_SQUARED 0.799, read-out: LUCIFERASE INFECTION ASSAY - IC50) was 5.95.
As to `Cc1ccc(/C=C2\CCc3c2nc2ccccc2c3C(=O)OCC#N)cc1`, the IC90 was 0.0147 µM. Further, the negative-log IC50 (pIC50) (HEPG2TOX_HILL_SLOPE 0.309, HEPG2TOX_R_SQUARED 0.18, PBLUC_HILL_SLOPE 16.5, PBLUC_R_SQUARED 0.242, read-out: LUCIFERASE INFECTION ASSAY - IC50) was 7.89.
Regarding `COc1cc(NC(=O)CSc2nc(N)c3c4c(sc3n2)CCCC4)c(C)cc1[N+](=O)[O-]`, the IC90 was > 10 µM. Besides, under setting [1], the pIC50 is 5.45.
On to `O=C(c1ccc(-n2cnc3ccccc3c2=O)cc1)N1CCN(S(=O)(=O)c2ccc3ccccc3c2)CC1`, for which the IC90 was > 10 µM. Besides, where the note is “PBLUC_HILL_SLOPE 18.8, PBLUC_R_SQUARED 0.0296, read-out: LUCIFERASE INFECTION ASSAY - IC50”, the pIC50 is 5.02.
For the compound `O=C1CC2(CCCC2)C(=O)N1CC(O)c1ccccc1` (centres undefined), the 90% effect concentration (IC90) is > 10 µM. For the same compound, the pIC50 under setting [1] was < 5.00.
On to `O=C(NC1CCCCC1C(F)(F)F)c1csc(-c2ccccc2)n1` (centres undefined), for which the IC90 came out at 3.92 µM. Also, the pIC50 (HEPG2TOX_HILL_SLOPE 0.159, HEPG2TOX_R_SQUARED 0.617, PBLUC_HILL_SLOPE 14, PBLUC_R_SQUARED 0.734, read-out: LUCIFERASE INFECTION ASSAY - IC50) was 5.47.
`Cc1cc(-c2cn3c(-c4ccc(CO)cc4)cnc3cn2)cc(C)c1O`: the IC90 is 4.31 µM. Further, the pIC50 (HEPG2TOX_HILL_SLOPE 1.62, HEPG2TOX_R_SQUARED 0.965, PBLUC_HILL_SLOPE 8.31, PBLUC_R_SQUARED 0.637, read-out: LUCIFERASE INFECTION ASSAY - IC50) is 5.48.
Regarding `Oc1cccc(-c2ccnc3n[nH]c(-c4ccc5c(c4)OCO5)c23)c1`, the IC90 was 6.14 µM. Also, the pIC50 (HEPG2TOX_HILL_SLOPE 9.48, HEPG2TOX_R_SQUARED 0.645, PBLUC_HILL_SLOPE 1.2, PBLUC_R_SQUARED 0.596, read-out: LUCIFERASE INFECTION ASSAY - IC50) is 6.01.
Take `Cc1cc2ncc(C(=O)Nc3nc4c(s3)CN(Cc3ccccc3)CC4)c(C)n2n1`: the IC90 is > 10 µM. In addition, for the setting “PBLUC_HILL_SLOPE 15, PBLUC_R_SQUARED 0.627, read-out: LUCIFERASE INFECTION ASSAY - IC50”, the negative logarithm of the IC50 (pIC50) is 5.03.
Turning to `COc1ccc2cc(/C(C)=N/OC(=O)Nc3cc(Cl)cc(Cl)c3)ccc2c1`, the concentration for an effect of 90% (IC90) amounted to 8.12 µM. Under setting [1], the negative-log IC50 (pIC50) was 5.39.
Taken in the same sequence, the figures for `O=C(NCc1ccc(-n2cccn2)cc1)c1[nH]nc(C2CC2)c1Br` were 1.52 µM and 5.90.
Turning to `Cc1nnc(NC(=O)CN2CCC(c3nc4ccccc4o3)CC2)s1`, the 90% effect concentration (IC90) was > 10 µM. Further, under setting [1], the pIC50 is < 5.00.
